Consider 38 molecules from patent US8008491B2, “Substituted AZA-indoles as inhibitors of poly(ADP-ribose) polymerase (PARP)” (Aventis Pharmaceuticals, Inc., priority 2003, dated 2011).

Where a name gives a salt, the structure may show the parent alone.

The term EC50 denotes the concentration at which the effect is half-maximal. A word on the IC50: it is the concentration needed to halve the response being measured.

Chain of human PARP (PARP1) (P09874 whole entry): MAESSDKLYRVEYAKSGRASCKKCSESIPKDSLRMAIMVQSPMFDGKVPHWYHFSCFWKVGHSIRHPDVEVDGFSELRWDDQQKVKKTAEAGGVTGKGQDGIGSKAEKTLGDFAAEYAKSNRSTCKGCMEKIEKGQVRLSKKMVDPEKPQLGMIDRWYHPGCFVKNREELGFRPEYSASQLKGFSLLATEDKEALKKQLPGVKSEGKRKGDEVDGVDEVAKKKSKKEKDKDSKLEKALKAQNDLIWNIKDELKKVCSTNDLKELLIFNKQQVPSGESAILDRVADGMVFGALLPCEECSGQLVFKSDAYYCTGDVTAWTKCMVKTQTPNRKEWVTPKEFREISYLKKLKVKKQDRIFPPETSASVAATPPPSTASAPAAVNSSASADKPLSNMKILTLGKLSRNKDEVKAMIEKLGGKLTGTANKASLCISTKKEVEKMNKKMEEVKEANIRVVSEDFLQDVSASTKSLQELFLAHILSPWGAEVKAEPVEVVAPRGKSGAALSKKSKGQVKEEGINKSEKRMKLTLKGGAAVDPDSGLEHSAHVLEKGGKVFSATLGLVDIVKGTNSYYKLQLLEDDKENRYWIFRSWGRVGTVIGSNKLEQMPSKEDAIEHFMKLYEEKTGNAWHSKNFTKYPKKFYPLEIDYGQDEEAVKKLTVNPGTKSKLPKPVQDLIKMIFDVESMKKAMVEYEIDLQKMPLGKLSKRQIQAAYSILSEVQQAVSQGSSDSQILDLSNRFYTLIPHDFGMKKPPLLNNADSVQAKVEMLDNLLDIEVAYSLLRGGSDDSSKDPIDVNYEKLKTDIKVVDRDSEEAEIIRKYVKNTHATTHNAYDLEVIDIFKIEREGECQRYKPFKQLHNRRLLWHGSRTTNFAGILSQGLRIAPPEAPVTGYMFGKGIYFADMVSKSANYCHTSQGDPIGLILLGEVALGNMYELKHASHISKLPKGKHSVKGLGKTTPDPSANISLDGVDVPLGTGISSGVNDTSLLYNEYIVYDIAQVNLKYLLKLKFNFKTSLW

The first experiment concerns HL-60 (human leukemia) cells. Put plainly: Cell-based assay: protection from cell death induced by serum deprivation (Alamar Blue). As to conditions: median effective concentration preventing cell death, HL-60, 0.1% FCS, 24 hr. The procedure:
HL-60 (human leukemia) cells are grown and maintained using standard procedures in RPMI 1640+Glutamax medium supplemented with 10% fetal calf serum (FCS). For assay, cells are suspended in medium supplemented with 0.1% FCS at 0.5 million cells/mL and seeded into 96 well plates (100 μL/well). After preincubation for 3 hrs, cells are treated with compound for 1 hr, then Alamar Blue (Serotec) is added to the cells. After a further 24 hr incubation, fluorescence is measured (ex 560 nm, em 590 nm). Decrease in fluorescence compared to control cells (10 μM of a potent PARP inhibitor) is a measure of cell death. Increased fluorescence in the presence of test compound indicates protection from cell death induced by serum deprivation. For detection of polyADP-ribosylation, cells are subjected to serum deprivation in the presence and absence of compound. Cells are lysed and proteins are run on an SDS-PAGE gel. PolyADP-ribosylated proteins are detected with antibody to polyADP-ribose (Alexis or Calbiochem).
The results obtained from this study are expressed as EC50 (median effective concentration of the test compound that was effective in preventing the cell death—expressed in micromolar (μM) concentration) for each of the tested compounds and are summarized in Table 4.
(Alamar Blue is a resazurin reagent that responds to reducing activity.)
For the molecule `O=Cc1c(N2CCN(CCO)CC2)n(-c2ccccc2)c2ccccc12` [Example 2, 2-[4-(2-hydroxyethyl)piperazin-1-yl]-1-phenyl-1H-indole-3-carboxaldehyde], the midpoint of the response, the EC50, lay at 3.4 µM. For the molecule `Cn1c(N2CCNCC2)c(C=O)c2ccccc21` [Example 9, 2-(Piperazin-1-yl)-1-methyl-1H-indole-3-carboxaldehyde], the EC50 stood at 8 µM.

A further experiment has as its target human PARP (PARP1) (Homo sapiens, UniProt P09874). Description: PARP enzyme assay of Table 3 (radioactive enzyme assay or 'ELISA' enzyme assay).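 Note: Baculovirus-expressed PARP1 from insect cells, activity read as tritium from labeled NAD in acid-precipitated protein, or as biotin-NAD built into plate-bound histone by absorbance at 450 nm.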 The following applies: IC50 (μM), fifty percent inhibitory concentration; recombinant human PARP. A general note: An ELISA detects its analyte on a solid surface through an enzyme-linked reagent.
Description: The compounds of this invention are then tested with this enzyme preparation using either the radioactive enzyme assay or by the “ELISA” enzyme assay as set forth below.
Incorporation of radioactivity from labeled NAD into acid-precipitated protein is measured. The reaction mixture (volume 100 μL or 50 μL, in a test-tube or 96-well plate) contained 100 μg/mL calf thymus DNA (sonicated), 100 μg/mL histones, 100 mM Tris (pH 8.0), 1.0 mM DTT, 10 mM MgCl2, NAD (200 μm, 0.65 microcurie/mL), and varying amounts of enzyme. The reaction was incubated for 10 min at 37° C. or at room temperature for 60 min. The reaction was stopped and protein precipitated by addition of ice-cold trichloroacetic acid (TCA; 10% or 20% aqueous w/v). After brief storage in ice or at 4° C. for 2 hrs, the reaction mixture is filtered under vacuum through a glass fiber filter (2.5 cm disc, or 96-well filter plate). After washing with TCA and ethanol, the filter is dried and counted for tritium CPM after addition of scintillation fluid.
Incorporation of biotin-NAD into histone coated on plate is measured. A 96-well protein-binding EIA plate is coated with histone and blocked with bovine serum albumin. The reaction mixture (50 μL) contained DNA, buffer, enzyme, (test compound), and 250 μM of NAD and 5 μL of biotin-NAD (Trevigen). After reaction at room temperature the wells are washed and treated with Extravidin (Sigma). After incubation and washing color is developed with the peroxidase substrate TMB (Sigma). The TMB reaction is quenched with 2M sulfurric acid and the absorbance at 450 nm is read.
`O=Cc1c(N2CCSCC2)n(-c2ccccc2)c2ccccc12` [Example 1, 1-Phenyl-2-(thiomorphin-4-yl)-1H-indole-3-carboxaldehyde]: the IC50 was 15.1 µM. Still for that read-out and setting: with `O=Cc1c(N2CCN(CCO)CC2)n(-c2ccccc2)c2ccccc12` [Example 2, 2-[4-(2-hydroxyethyl)piperazin-1-yl]-1-phenyl-1H-indole-3-carboxaldehyde] the figure was 4.6 µM; with `Cn1c(N2CCNCC2)c(C=O)c2ccccc21` [Example 9, 2-(Piperazin-1-yl)-1-methyl-1H-indole-3-carboxaldehyde], 27.5 µM; with `O=Cc1c(N2CCNCC2)n(-c2cccc([N+](=O)[O-])c2)c2ccccc12` [Example 11B-1, 2-(Piperazin-1-yl)-1-(3-nitrophenyl)-1H-indole-3-carboxaldehyde], 2.5 µM. Same read-out and setting: with `O=Cc1c(N2CCNCC2)n(-c2cccc3ccccc23)c2ccccc12` [Example 11B-2, 2-(Piperazin-1-yl)-1-(1-naphthyl)-1H-indole-3-carboxaldehyde] the figure was 4 µM.

As to `COc1ccc(-n2c(N3CCNCC3)c(C=O)c3ccccc32)cc1` [Example 11B-3, 2-(Piperazin-1-yl)-1-(4-methoxyphenyl)-1H-indole-3-carboxaldehyde], the IC50 stood at 4.5 µM. Same read-out and setting: next, `CC(C)(C)c1ccc(-n2c(N3CCNCC3)c(C=O)c3ccccc32)cc1` [Example 11B-4, 2-(Piperazin-1-yl)-1-(4-tert-butylphenyl)-1H-indole-3-carboxaldehyde]: 10 µM.

As for `O=Cc1c(N2CCNCC2)n(-c2ccc(Br)cc2)c2ccccc12` [Example 11B-5, 2-(Piperazin-1-yl)-1-(4-bromophenyl)-1H-indole-3-carboxaldehyde], the IC50 came out at 3 µM. Still for that read-out and setting: next, `O=Cc1c(N2CCNCC2)n(-c2ccc(Cl)cc2)c2ccccc12` [Example 11B-6, 2-(Piperazin-1-yl)-1-(4-chlorophenyl)-1H-indole-3-carboxaldehyde]: 4 µM; `O=Cc1c(N2CCNCC2)n(-c2ccc(F)c(Cl)c2)c2ccccc12` [Example 11B-7, 2-(Piperazin-1-yl)-1-(3-chloro-4-fluorophenyl)-1H-indole-3-carboxaldehyde]: 4 µM; `COc1cccc(-n2c(N3CCNCC3)c(C=O)c3ccccc32)c1` [Example 11B-8, 2-(Piperazin-1-yl)-1-(3-methoxyphenyl)-1H-indole-3-carboxaldehyde]: 5.5 µM. Still for that read-out and setting: with `CSc1ccc(-n2c(N3CCNCC3)c(C=O)c3ccccc32)cc1` [Example 11B-9, 2-(Piperazin-1-yl)-1-(4-thiomethylphenyl)-1H-indole-3-carboxaldehyde] the figure was 4 µM; with `O=Cc1c(N2CCNCC2)n(-c2cccc(F)c2)c2ccccc12` [Example 11B-10, 2-(Piperazin-1-yl)-1-(3-fluorophenyl)-1H-indole-3-carboxaldehyde], 2.5 µM. Regarding `Cc1cccc(-n2c(N3CCNCC3)c(C=O)c3ccccc32)c1` [Example 11B-11, 2-(Piperazin-1-yl)-1-(3-methylphenyl)-1H-indole-3-carboxaldehyde], the IC50 was 3 µM. Still for that read-out and setting: next, `O=Cc1c(N2CCNCC2)n(-c2cccnc2)c2ccccc12` [Example 13, 2-(Piperazin-1-yl)-1-(pyridin-3-yl)-1H-indole-3-carboxaldehyde]: 3 µM; `CC(C)(C)OC(=O)NCCN1CCN(c2c(C=O)c3ccccc3n2-c2ccccc2)CC1` [Example 19]: 8.8 µM. On the same count and under the same terms, next, `O=Cc1c(N2CC3CC2CN3)n(-c2ccccc2)c2ccccc12` (centres unmarked) [Example 21]: 5.1 µM; `O=Cc1c(N2CCCNCC2)n(-c2ccccc2)c2ccccc12` [Example 22, 2-[1,4]Diazepan-1-yl-1-phenyl-1H-indole-3-carboxaldehyde]: 4.5 µM. Turning to `O=Cc1c(N2CCN(CCO)CC2)n(-c2ccccc2)c2ccccc12` [Example 41, 2-[4-(2-Hydroxethyl)piperazin-1-yl]-1-phenyl-1H-indole-3-carboxaldehyde Hydrochloride], the IC50 was found to be 43.1 µM. `O=Cc1c(N2CCOCC2)n(-c2ccccc2)c2ccccc12` [Example 43, 2-(Morpholin-4-yl)-1-phenyl-1H-indole-3-carboxaldehyde]: the IC50 was 11.4 µM. For `CC(C)(C)OC(=O)N1CC2CC1CN2c1c(C=O)c2ccccc2n1-c1ccccc1` (centres unmarked) [Example 45, 5-(3-Formyl-1-phenyl-1H-indol-2yl)-2,5-diazabicyclo[2.2.1]heptane-2-carboxylic acid tert-butyl ester], the concentration for half-maximal inhibition (IC50) stood at 5.1 µM.

Consider `O=Cc1cccc(-n2c(N3CCNCC3)c(C=O)c3ccccc32)c1` [Example 46], for which the IC50 worked out at 0.85 µM.

With `O=Cc1c(N2CCNCC2)n(-c2ccc(-c3ccccc3)cc2)c2ccccc12` [Example 47, 1-(Biphenyl-4-yl)-2-piperazin-1-yl-1H-indole-3-carboxaldehyde Hydrochloride], the IC50 worked out at 6.9 µM. Still for that read-out and setting: with `CCc1ccc(-n2c(N3CCNCC3)c(C=O)c3ccccc32)cc1` [Example 48, 1-(4-Ethylphenyl)-2-(piperazin-1-yl)-1H-indole-3-carboxaldehyde Hydrochloride] the figure was 15.5 µM.

Consider `O=Cc1c(N2CCNCC2)n(-c2cccc(Br)c2)c2ccccc12` [Example 49, 1-(3-Bromophenyl)-2-piperazin-1-yl-1H-indole-3-carboxaldehyde], for which the 50% inhibitory concentration (IC50) was found to be 1.9 µM. Still for that read-out and setting: with `Cc1ccc(-n2c(N3CCNCC3)c(C=O)c3ccccc32)cc1[N+](=O)[O-]` [Example 50, 1-(4-Methyl-3-nitrophenyl)-2-(piperazin-1-yl)-1H-indole-3-carboxaldehyde] the figure was 1.4 µM; with `CN(C)c1ccc(-n2c(N3CCNCC3)c(C=O)c3ccccc32)cc1` [Example 51, 1-(4-Dimethylaminophenyl)-2-piperazin-1-yl-1H-indole-3-carboxaldehyde], 26 µM; with `O=Cc1c(N2CCNCC2)n(-c2ccc(Oc3ccccc3)cc2)c2ccccc12` [Example 52, 1(4-Phenoxyphenyl)-2-(piperazin-1-y)l-1H-indole-3-carboxaldehyde], 42.2 µM.

On to `Cc1ccc(-n2c(N3CCNCC3)c(C=O)c3ccccc32)cc1` [Example 53, 1-(4-Methylphenyl)-2-(piperazin-1-yl)-1H-indole-3-carboxaldehyde], for which the IC50 stood at 19.9 µM. In the case of `O=Cc1c(N2CCNCC2)n(-c2ccc(F)cc2)c2ccccc12` [Example 54, 1-(4-Fluorophenyl)-2-(piperazin-1-yl)-1H-indole-3-carboxaldehyde Hydrochloride], the IC50 amounted to 3.1 µM. On to `O=Cc1c(N2CCNCC2)n(-c2cccc(Cl)c2)c2ccccc12` [Example 55], for which the IC50 was found to be 4.1 µM. Still for that read-out and setting: with `C=Cc1ccc(-n2c(N3CCNCC3)c(C=O)c3ccccc32)cc1` [Example 56, 2-(Piperazin-1-yl)-1-(4-vinylphenyl)-1H-indole-3-carboxaldehyde] the figure was 1.5 µM.

In the case of `O=Cc1c(N2CCNCC2)n(-c2cccc(CO)c2)c2ccccc12` [Example 57, 1-(3-Hydroxymethylphenyl)-2-(piperazin-1-yl)-1H-indole-3-carboxaldehyde], the IC50 amounted to 1.4 µM. The same measure, in the same setting: next, `CCOc1cccc(-n2c(N3CCNCC3)c(C=O)c3ccccc32)c1` [Example 58, 1-(3-Ethoxyphenyl)-2-(piperazin-1-yl)-1H-indole-3-carboxaldehyde]: 0.85 µM; `CCCCc1ccc(-n2c(N3CCNCC3)c(C=O)c3ccccc32)cc1` [Example 61, 1-(4-Butylphenyl-2-(piperazin-1-yl)-1H-indole-3-carboxaldehyde Hydrochloride]: 2.7 µM; `CC(=O)Nc1cccc(-n2c(N3CCNCC3)c(C=O)c3ccccc32)c1` [Example 62, N-{3-[3-Formyl-2-(piperazin-1-yl)-indol-1-yl]phenyl}-acetamide Hydrochloride]: 0.99 µM. Same read-out and setting: next, `N#Cc1ccc(-n2c(N3CCNCC3)c(C=O)c3ccccc32)cc1` [Example 63, 4-[3-Formyl-2-(piperazin-1-yl)-indol-1-yl]-benzonitrile]: 2.3 µM.

The next experiment has as its system Male Sprague-Dawley rats. Description: Myocardial ischemia model: coronary artery occlusion and reperfusion, infarct size. The experiment is classed as in vivo, rat. The following applies: 10 mg/kg i.v. 5 min prior to reperfusion (Example 3); 20 min occlusion, 60 min reperfusion. From the text: Male Sprague-Dawley rats are anesthetized and the chest is opened. A thin silk thread is placed around the left anterior descending coronary artery. The silk is passed through a plastic tube and the chest is closed. After stable hemodynamics, the coronary artery is occluded by applying tension to the thread via the tube. Successful occlusion is confirmed by a decrease in systolic blood pressure and alterations in ECG. Reperfusion is initiated by releasing the tension on the ligature.
For testing efficacy of Example 3 in this animal model, animals are divided into three groups. One group received the compound of Example 3 at 10 mg/kg i.v. 10 min prior to occlusion. A second group received compound of Example 3 at the same dose 5 min prior to reperfusion. The third group served as vehicle control. The period of occlusion is 20 min, followed by reperfusion for 60 min. After sacrifice infarct size is measured by staining of heart tissue slices with triphenyltetrazolium chloride and expressed as a percent (%) of area at risk.
A similar study is carried out with cariporide, a reference standard.
On to `CC(C)c1ccc(C(=O)NC(=N)N)cc1S(C)(=O)=O` [cariporide, reference compound], for which the “infarct size (% of area at risk), effect when given prior to reperfusion” value is “no effect”.

Staying with this experiment, now noted: 10 mg/kg i.v. 10 min prior to occlusion (Example 3); 20 min occlusion, 60 min reperfusion.
As to `CC(C)c1ccc(C(=O)NC(=N)N)cc1S(C)(=O)=O` [cariporide, reference compound], the “infarct size (% of area at risk), effect when given prior to ischemia” value is “significant protection”.
